Measured values from patent US9617276B2, “Compounds and methods for treating AIDS and HIV infections” (priority 2009, dated 2017).

Legend:
Experiment in all cases: microbe, parasite or virus in culture
HIV-1APV5μM = format: cell-based; details: for EC50: Human immunodeficiency virus 1, MT4, read-out: EC50 (μM), HIV-1APV5 μM; for n-fold change in EC50, HIV-1APV5 μM: compared to wild-type HIV-1NL4-3
Method: (§1) The susceptibility of HIV-1LAI and primary HIV-1 isolates to various drugs were determined as described previously (Koh et al. 2003 Antimicrob Agents Chemother 47:3123-9). Briefly, MT-2 cells (2×10^4/ml) were exposed to 100 50% tissue culture infectious doses (TCID50S) of HIV-1LAI, in the presence or absence of various concentrations of drugs in 96-well microculture plates and were incubated at 37° C. for 7 days. After 100 μl of the medium was removed from each well, 3-(4,5-dimetylthiazol-2-yl)-2,5-diphenyltetrazolium bromide (MTT) solution (10 μl, 7.5 mg/ml in phosphate-buffered saline) was added to each well in the plate, followed by incubation at 37° C. for 3 h. […] All assays were performed in duplicate or triplicate. To determine the susceptibility of primary HIV-1 isolates to drugs, phytohemagglutinin-activated peripheral blood mononuclear cells (PHA-PBMCs; 106/ml) were exposed to 50 TCID50S of each. The target cells were exposed to HIV-1104pre or drug-resistant HIV-1 in the presence or absence of various concentrations of drugs and were incubated for 7 days. Upon the conclusion of the culture, the amounts of p24 Gag protein in the supernatants were determined using a fully automated chemiluminescent enzyme immunoassay system (Lumipulse F; Fujirebio Inc., Tokyo, Japan) (Maeda et al. 2001 J Biol Chem 276:35194-200). To determine the drug susceptibility of certain laboratory HIV-1 strains, MT-4 cells were used as target cells. In brief, MT-4 cells (10^5/ml) were exposed to 100 TCID50S of drug-resistant HIV-1 strains in the presence or absence of various concentrations of drugs and on day 7 of culture, the supernatant was harvested and the amounts of p24 Gag protein were determined. […] All assays were performed in duplicate or triplicate.
(§2) Numbers in parentheses represent n-fold changes in EC50s for each isolate compared to the EC50s for wild-type HIV-1NL4-3.

HIV-1AZV5μM = format: cell-based; details: for EC50: Human immunodeficiency virus 1, MT4, read-out: EC50 (μM), HIV-1AZV5 μM; for n-fold change in EC50, HIV-1AZV5 μM: compared to wild-type HIV-1NL4-3
Method: as §1, §2

HIV-1LPV5μM = format: cell-based; details: for EC50: Human immunodeficiency virus 1, MT4, read-out: EC50 (μM), HIV-1LPV5 μM; for n-fold change in EC50, HIV-1LPV5 μM: compared to wild-type HIV-1NL4-3
Method: as §1, §2

HIV-1SQV5μM = format: cell-based; details: for EC50: Human immunodeficiency virus 1, MT4, read-out: EC50 (μM), HIV-1SQV5 μM; for n-fold change in EC50, HIV-1SQV5 μM: compared to wild-type HIV-1NL4-3
Method: as §1, §2

HIV-1MDR/JSL = format: cell-based; details: for EC50: Human immunodeficiency virus 1, read-out: EC50 (μM), HIV-1MDR/JSL (NSI); for n-fold change of EC50, HIV-1MDR/JSL: compared to wild-type HIV-1ERS104pre
Method: as §1
(§3) These clinical strains contained 9 to 14 amino acid substitutions in the protease-encoding region, which have reportedly been associated with HIV-1 resistance to various PIs.
(§4) Amino acid substitutions identified in the protease-encoding region compared to the consensus type B sequence cited from the Los Alamos database include L63P in HIV-1ERS104pre; L10I, K14R, L33I, M36I, M46I, F53I, K55R, I62V, L63P, A71V, G73S, V82A, L90M, and I93L in HIV-1MDR/B; L10I, I15V, K20R, L24I, M36I, M46L, I54V, I62V, L63P, K70Q, V82A, and L89M in HIV-1MDR/C; L10I, V11I, T12E, I15V, L19I, R41K, M46L, L63P, A71T, V82A, and L90M in HIV-1MDR/G; L10I, K14R, R41K, M46L, I54V, L63P, A71V, V82A, L90M, I93L in HIV-1MDR/TM; L10I, K43T, M46L, I54V, L63P, A71V, V82A, L90M, and Q92K in HIV-1MDR/MM; L10I, L24I, I33F, E35D, M36I, N37S, M46L, I54V, R57K, I62V, L63P, A71V, G73S, and V82A in HIV-1MDR/JSL. HIV-1ERS104pre served as a source of wild-type HIV-1. EC50s were determined by using PHA-PBMs as target cells, and inhibition of p24 Gag protein production by each drug was used as an end point. Numbers in parentheses represent n-fold changes of EC50s for each isolate compared to EC50s for wild-type HIV-1ERS104pre.

HIV-1MDR/MM = format: cell-based; details: for EC50: Human immunodeficiency virus 1, read-out: EC50 (μM), HIV-1MDR/MM (NSI); for n-fold change of EC50, HIV-1MDR/MM: compared to wild-type HIV-1ERS104pre
Method: as §1, §3, §4

HIV-1216-P50 = format: cell-based, HIV-1; details: for EC50: Human immunodeficiency virus 1, MT4, read-out: EC50 (μM), HIV-1216-p50; for n-fold change in EC50, HIV-1216-p50: compared to wild-type HIV-1NL4-3
Method: (§5) Briefly, MT-2 cells (2×10^4/ml) were exposed to 100 50% tissue culture infectious doses (TCID50S) of HIV-1LAI, in the presence or absence of various concentrations of drugs in 96-well microculture plates and were incubated at 37° C. for 7 days. After 100 μl of the medium was removed from each well, 3-(4,5-dimetylthiazol-2-yl)-2,5-diphenyltetrazolium bromide (MTT) solution (10 μl, 7.5 mg/ml in phosphate-buffered saline) was added to each well in the plate, followed by incubation at 37° C. for 3 h. […] All assays were performed in duplicate or triplicate. […] To determine the drug susceptibility of certain laboratory HIV-1 strains, MT-4 cells were used as target cells. In brief, MT-4 cells (10^5/ml) were exposed to 100 TCID50S of drug-resistant HIV-1 strains in the presence or absence of various concentrations of drugs and on day 7 of culture, the supernatant was harvested and the amounts of p24 Gag protein were determined. […] All assays were performed in duplicate or triplicate.
as §2

HIV-1246-1μM = format: cell-based, HIV-1; details: for EC50: Human immunodeficiency virus 1, MT4, read-out: EC50 (μM), HIV-1246-1 μM; for n-fold change in EC50, HIV-1246-1 μM: compared to wild-type HIV-1NL4-3
Method: as §5, §2

HIV-1286-1μM = format: cell-based, HIV-1; details: for EC50: Human immunodeficiency virus 1, MT4, read-out: EC50 (μM), HIV-1286-1 μM; for n-fold change in EC50, HIV-1286-1 μM: compared to wild-type HIV-1NL4-3
Method: as §5, §2

HIV-1396-1μM = format: cell-based, HIV-1; details: for EC50: Human immunodeficiency virus 1, MT4, read-out: EC50 (μM), HIV-1396-1 μM; for n-fold change in EC50, HIV-1396-1 μM: compared to wild-type HIV-1NL4-3
Method: as §5, §2

`COc1ccc2c(c1)OCCC=CCCCCN(CC(O)C(Cc1ccccc1)NC(=O)OC1COC3OCCC13)S2(=O)=O` (centres unmarked) [Compound 14c] was tested, and the EC50 (HIV-1APV5μM) was greater than 1 µM, the EC50 (HIV-1AZV5μM) was 0.023 ± 0.005 µM and the EC50 (HIV-1LPV5μM) was 0.035 ± 0.005 µM. It also gave an EC50 (HIV-1SQV5μM) of 0.02 ± 0.009 µM, an EC50 (HIV-1MDR/JSL) of 0.073 ± 0.07 µM and an EC50 (HIV-1MDR/MM) of 0.033 ± 0.01 µM. For the same compound, the EC50 (HIV-1216-P50) was 0.094 µM, the EC50 (HIV-1246-1μM) was 0.3 ± 0.01 µM and the EC50 (HIV-1286-1μM) was greater than 1 µM. The EC50 (HIV-1396-1μM) was 0.073 ± 0.011 µM.
In the case of `Cc1cccc(C)c1OCC(=O)N[C@@H](Cc1ccccc1)[C@@H](O)C[C@H](Cc1ccccc1)NC(=O)[C@H](C(C)C)N1CCCNC1=O` [LPV, lopinavir], the EC50 (HIV-1APV5μM) is reported as greater than 1 µM, the “n-fold change in EC50, HIV-1APV5 μM” value (HIV-1APV5μM) is reported as greater than 22 and the EC50 (HIV-1AZV5μM) is reported as greater than 1 µM. The “n-fold change in EC50, HIV-1AZV5 μM” value (HIV-1AZV5μM) was greater than 22, the EC50 (HIV-1LPV5μM) was greater than 1 µM and the “n-fold change in EC50, HIV-1LPV5 μM” value (HIV-1LPV5μM) was greater than 22. The EC50 (HIV-1SQV5μM) was 0.12 ± 0.02 µM, the “n-fold change in EC50, HIV-1SQV5 μM” value (HIV-1SQV5μM) was “(2)” and the EC50 (HIV-1MDR/JSL) was greater than 1 µM. For the same compound, the “n-fold change of EC50, HIV-1MDR/JSL” value (HIV-1MDR/JSL) was greater than 29, the EC50 (HIV-1MDR/MM) was greater than 1 µM and the “n-fold change of EC50, HIV-1MDR/MM” value (HIV-1MDR/MM) was greater than 29. For the same compound, the EC50 (HIV-1216-P50) was 0.19 ± 0.06 µM, the “n-fold change in EC50, HIV-1216-p50” value (HIV-1216-P50) was “(5)” and the EC50 (HIV-1246-1μM) was 0.33 ± 0.04 µM. For the same compound, the “n-fold change in EC50, HIV-1246-1 μM” value (HIV-1246-1μM) was “(8)”, the EC50 (HIV-1286-1μM) was greater than 1 µM and the “n-fold change in EC50, HIV-1286-1 μM” value (HIV-1286-1μM) was greater than 23. For the same compound, the EC50 (HIV-1396-1μM) was 0.28 ± 0.05 µM and the “n-fold change in EC50, HIV-1396-1 μM” value (HIV-1396-1μM) was “(6)”.
`CCC[C@@]1(CCc2ccccc2)CC(O)=C([C@H](CC)c2cccc(NS(=O)(=O)c3ccc(C(F)(F)F)cn3)c2)C(=O)O1` [TPV, Tipranavir] was tested, and the EC50 (HIV-1APV5μM) was 0.22 ± 0.089 µM, the “n-fold change in EC50, HIV-1APV5 μM” value (HIV-1APV5μM) was “(0.7)” and the EC50 (HIV-1AZV5μM) was 0.41 ± 0.047 µM. For the same compound, the “n-fold change in EC50, HIV-1AZV5 μM” value (HIV-1AZV5μM) was “(1)”, the EC50 (HIV-1LPV5μM) was 0.31 ± 0.03 µM and the “n-fold change in EC50, HIV-1LPV5 μM” value (HIV-1LPV5μM) was “(1)”. For the same compound, the EC50 (HIV-1SQV5μM) was 0.022 ± 0.009 µM, the “n-fold change in EC50, HIV-1SQV5 μM” value (HIV-1SQV5μM) was “(0.1)” and the EC50 (HIV-1MDR/JSL) was 0.23 ± 0.049 µM. The “n-fold change of EC50, HIV-1MDR/JSL” value (HIV-1MDR/JSL) was “(2)”, the EC50 (HIV-1MDR/MM) was 0.36 ± 0.06 µM and the “n-fold change of EC50, HIV-1MDR/MM” value (HIV-1MDR/MM) was “(3)”. For the same compound, the EC50 (HIV-1216-P50) was 0.029 ± 0.0004 µM, the “n-fold change in EC50, HIV-1216-p50” value (HIV-1216-P50) was “(0.1)” and the EC50 (HIV-1246-1μM) was 0.095 ± 0.089 µM. The “n-fold change in EC50, HIV-1246-1 μM” value (HIV-1246-1μM) was “(0.3)”, the EC50 (HIV-1286-1μM) was 0.037 ± 0.001 µM and the “n-fold change in EC50, HIV-1286-1 μM” value (HIV-1286-1μM) was “(0.1)”. For the same compound, the EC50 (HIV-1396-1μM) was 0.042 ± 0.002 µM and the “n-fold change in EC50, HIV-1396-1 μM” value (HIV-1396-1μM) was “(0.1)”.
